From patent EP4563579A1, “MACROCYCLIC EGFR INHIBITOR, AND PREPARATION METHOD THEREFOR AND PHARMACEUTICAL USE THEREOF” (Abbisko Therapeutics Co., Ltd., priority 2022, dated 2024)

Experiments:
A431 WT = assay: Cell proliferation assay (CellTiter-Glo), A431 WT; format: cell-based; settings: Homo sapiens, A-431; A431 WT cells, 72 hour incubation, CTG readout
Summary of the method: (§1)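 Cells seeded overnight, then exposed 72 h at 37 °C, 5% CO2 to nine 3.16-fold dilutions (top final 10 µM, 0.1% DMSO), triplicate wells. Viability read by CellTiter-Glo luminescence, with a T0 plate read at dosing; IC50 (nM) by non-linear sigmoidal regression.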

[1] = Pharmacokinetic experiment in mice; format: in vivo; settings: ICR mice; for AUC(0-t) / Cmax / half-life: male, mouse, single oral administration (PO), 10 mg/kg, plasma
Source text: The purpose of this trial is to study the pharmacokinetic behavior of some compounds of the present invention, and the administration method is: Single oral administration (PO) to ICR mice.
The compounds used in this trial are from the compounds in the specific examples of the present invention and the listed positive compounds.
ICR mice male N=9 original source: Shanghai Sippr-Bk Lab Animal Co., Ltd.
The compounds are weighed and dissolved in the corresponding solution (10% PG + 10% Solutol® + 80% pH3 citrate buffer). The mixture is then shaken well and sonicated to prepare a 1 mg/mL stock solution. Nine mice are orally administered at a dose of 10 mg/kg (or IV 2 mg/kg) after an overnight fast.
About 90 µL of blood is collected via the submandibular vein per time point, heparin sodium anticoagulant is added, the sample is placed on ice after collection, and plasma is centrifuged within 1 hour (centrifugation conditions: 8,000 rpm, 6 minutes, 2-8°C). The blood collection timepoints are 0, 0.25, 0.5, 1, 2, 4, 6, 8 and 24 h. The samples are stored in a -20°C refrigerator.
The plasma sample is 40 µL, 160 µL of ice-cold acetonitrile containing internal standard is added, vortexed for 3 minutes, and centrifuged at 11,000 rpm for 5 minutes. 100 µL of the supernatant is taken and added to 100 µL of water, 5 µL of the sample is taken and injected into LC/MS/MS for analysis.

[2] = test system: Ba/F3 EGFR-L858R-C797S (LC); assay: Cell proliferation assay (CellTiter-Glo), Ba/F3 LC; format: cell-based; settings: Mus musculus, BaF3; Ba/F3 EGFR-L858R-C797S cells, 72 hour incubation, CTG readout
Summary of the method: as §1

[3] = test system: Ba/F3 EGFR-DEL19-C797S (DC); assay: Cell proliferation assay (CellTiter-Glo), Ba/F3 DC; format: cell-based; settings: Mus musculus, BaF3; Ba/F3 EGFR-DEL19-C797S cells, 72 hour incubation, CTG readout
Procedure: (§2) • DMEM Medium (Gibco, Cat#11965118) • RPMI1640 Medium (Gibco, Cat#11875119) • Fetal Bovine Serum (FBS) (GBICO, Cat#10099-141) • CellTiter-Glo® Luminescent Cell Viability Assay Kit (Promega, Cat#G7572) 96-well, Black, Clear Flat Bottom Plate (Corning®, Cat# 3603)
(§3) • SpectraMax Multimode Microplate Reader MD, 2104-0010A; • CO2 Incubator, Thermo Scientific 3100 Series; • Biosafety Cabinet, Thermo Scientific, 1300 Series A2; • Inverted Microscope, Olympus, CKX41SF; • Siemens Refrigerator, KK25E76TI.
(§4) • 1. Cell Culture and Inoculation: • (1) Harvest cells in a logarithmic growth phase and count the cells using a […]. Test cell viability using a trypan blue exclusion method to ensure that cell viability is above 90%. • (2) Adjust the cell concentration to desired final density; and add 90 µL of cell suspension to a 96-well plate. • (3) Incubate the cells overnight at 37°C, under 5% CO2 and 95% humidity in the 96-well plate. • 2. T0 Reference Data: • (1) Add 10 µL PBS to each well of the T0 plate containing cells. • (2) Thaw the CTG reagent and equilibrate the plate to room temperature for 30 minutes. • (3) Add an equal volume of CTG solution to each well. • (4) Lyse cells by shaking on an orbital shaker for 5 minutes. • (5) Leave the plate at room temperature for 20 minutes to stabilize the luminescence signal. • (6) Read the T0 […]. • 3. Compound Dilution and Addition • (1) Add a corresponding volume of DMSO to a corresponding compound powder according to the compound information sheet to prepare a 10 mM stock solution. • (2) Prepare 1000-fold and 3.16-fold diluted compound solutions. • (3) Dilute the 1000× diluted compound solution 100-fold with PBS to prepare a 10-fold compound solution, with a maximum concentration of 10 µM, nine concentrations and 3.16-fold dilution. Then add 10 µL of the drug solution concentration to individual wells of the 96-well plate seeded with cells. Test each compound concentration in triplicate wells, and the final DMSO concentration is 0.1%. • (4) Incubate the cells in the 96-well plate containing the drug compounds at 37°C, under 5% CO2, and 95% humidity for an additional 72 hour period prior to performing the CTG analysis. • 4. Fluorescence Signal Reading • (1) Thaw the CTG reagent and equilibrate the plate to room temperature for 30 minutes. • (2) Add an equal volume of CTG solution to each well. • (3) Lyse cells by shaking on an orbital shaker for 5 minutes. • (4) Leave the plate at room temperature for 20 minutes to stabilize the […]. • (5) Read fluorescence value. • 5. Data Processing
(§5) Analyze the data by using GraphPad Prism 7.0 software, and use Non-linear S-curve regression to fit the dose-response curves, to calculate the IC50 values (in nM). The specific experiment results are presented in Table 1: [formula] Table 1: Biology Test Results

[4] = test system: Ba/F3 EGFR-L858R-T790M-C797S (LTC); assay: Cell proliferation assay (CellTiter-Glo), Ba/F3 LTC; format: cell-based; settings: Mus musculus, BaF3; Ba/F3 EGFR-L858R-T790M-C797S cells, 72 hour incubation, CTG readout
Summary of the method: as §1

[5] = test system: Ba/F3 EGFR-DEL19-T790M-C797S (DTC); assay: Cell proliferation assay (CellTiter-Glo), Ba/F3 DTC; format: cell-based; settings: Ba/F3 EGFR-DEL19-T790M-C797S cells, 72 hour incubation, CTG readout; read-out: IC50 BaF3 DTC
Procedure: as §2, §3, §4, §5

Row | IC50 (A431 WT) [nM] | AUC(0-t) [1] [ng·h/mL] | Cmax [1] [ng/mL] | half-life [1] [h] | IC50 [2] [nM] | IC50 [3] [nM] | IC50 [4] [nM] | IC50 [5] [nM] | Oral F ([1]; PO 10 mg/kg (IV 2 mg/kg)) [%] | Structure (SMILES)
1 | 554 | 10100 | 2070 | 3.1 | 15.8 | 6.1 | 6.4 | 3.2 |  | CCS(=O)(=O)C[C@H]1CCN(c2nn3c4cc(ncc24)Nc2ccnc(n2)-c2cnn(C)c2OCC2(CCCCC2)C3)C1 [Example 37, (S)-1'-methyl-3'-(3-((ethylsulfonyl)methyl)pyrrolidin-1-yl)spiro(cyclohexane-1,6'-8-oxa-3-aza-4(6,1)-pyrazolo [4,3-c]pyridina-2(2,4)-pyrimidina-1(4,5)-pyrazolacyclooctaphane)]
2 | 323 | 1030 | 88.2 | 3.5 | 17.4 | 7.9 | 10.5 | 7.2 |  | CN1CCC(C#Cc2nn3c4cc(ncc24)Nc2ccnc(n2)-c2cnn(C)c2OCC2(CCCC2)C3)CC1 [Example 1, 1'-methyl-3'-((1-methylpiperidin-4-yl)ethynyl)spiro(cyclopentane-1,6'-8-oxa-3-aza-4(6,1)-pyrazolo[4,3-c]pyridina-2(2,4)-pyrimidina-1(4,5)-pyrazolacyclooctaphane)]
3 | 654 | 1730 | 412 | 1.3 | 31.6 | 12.1 | 12 | 8.7 |  | Cn1ncc2c1OCC1(CCCC1)Cn1nc(N3CC[C@H](NC(=O)C4CC4)C3)c3cnc(cc31)Nc1ccnc-2n1 [Example 54, (S)-N-(1-(1'-methylspiro(cyclopentane-1,6'-8-oxa-3-aza-4(6,1)-pyrazolo[4,3-c]pyridina-2(2,4)-pyrimidina-1(4,5) -pyrazolacyclooctaphane)-3' -yl)pyrrolidin-3-yl)cyclopropanecarboxamide]
4 | 424 | 2690 | 596 | 2.8 | 17.6 | 15 | 9 | 10.1 |  | COC(=O)N[C@@H]1CCN(c2nn3c4cc(ncc24)Nc2ccnc(n2)-c2cnn(C)c2OCC2(CCCC2)C3)C1 [Example 51, Methyl (R)-(1-(1'-methylspiro(cyclopentane-1,6'-8-oxa-3-aza-4 (6,1)-pyrazolo[4,3-c]pyridina-2(2,4)-pyrimidina-1(4,5)-pyrazolacyclooctaphane)-3'-yl)pyrrolidin-3-yl)carbamate]
5 | 564 | 7110 | 1920 | 2.3 | 12.9 | 15.9 | 3.1 | 5.2 |  | Cn1ncc2c1OCC1(CCCCC1)Cn1nc(N3CC[C@H](CS(=O)(=O)C4CC4)C3)c3cnc(cc31)Nc1ccnc-2n1 [Example 41, (S)-3'-(3-((cyclopropylsulfonyl)methyl)pyrrolidin-1-yl)-1'-methylspiro(cyclohexane-1,6'-8-oxa-3-aza-4(6,1)-pyrazolo[4,3-c]pyridina-2(2,4) -pyrimidina-1(4,5)-pyrazolacyclooctaphane)]
6 | 345 | 5570 | 1500 | 2.6 | 2.2 | 0.9 | 1 | 0.7 | 81.5 | CCS(=O)(=O)C[C@H]1CCN(c2nn3c4cc(ncc24)Nc2ccnc(n2)-c2cnn(C)c2OCC2(CCCC2)C3)C1 [Example 35, (S)-3'-(3-((ethylsulfonyl)methyl)pyrrolidin-1-yl)-1'-met hylspiro(cyclopentane-1,6'-8-oxa-3-aza-4(6,1)-pyrazolo [4,3-c]pyridina-2(2,4)-pyrimidina-1(4,5)-pyrazolacyclooctaphane)]
7 | 1720 | 5320 | 882 | 2.4 | 5 | 2.8 | 3.6 | 3.5 |  | Cn1ncc2c1OCC1(CCCC1)Cn1nc(N3CC[C@H](CS(=O)(=O)C(F)(F)F)C3)c3cnc(cc31)Nc1ccnc-2n1 [Example 14, (S)-1'-methyl-3'-(3-(((trifluoromethyl)sulfonyl)methyl)pyrrolidin-1-yl)spiro[cyclopentane-1,6'-8-oxa-3-aza-4(6,1)-pyrazolo[4,3-c]pyridina-2(2,4)-pyrimidina-1(4,5)-pyrazolacyclooctaphane]]
8 | 794 | 8870 | 1540 | 2.2 | 25.5 | 14.8 | 14.9 | 8.4 |  | Cn1ncc2c1OCC1(CCCC1)Cn1nc(N3CC[C@@H](C(C)(C)O)C3)c3cnc(cc31)Nc1ccnc-2n1 [Example 13, (R)-2-(1-(1'-methylspiro[cyclopentane-1,6'-8-oxa-3-aza-4(6,1)-pyrazolo[4,3-c]pyridina-2(2,4)-pyrimidina-1(4,5)-pyrazolacyclooctaphane]-3'-yl)pyrrolidin-3-yl)propan-2-ol]
9 | 450 | 204 | 32.7 | 4.8 | 11.5 | 4.9 | 8 | 4.2 |  | C[C@H]1CCOc2c(cnn2C)-c2nccc(n2)Nc2cc3c(cn2)c(-c2ccc(CN4CCN(C)CC4)n2C)nn31 [Positive Compoun d, reference compound]
10 | 682 |  |  |  | 45.7 | 12.8 | 86.9 | 12.4 |  | Cn1ncc2c1OCC1(CCCC1)Cn1nc(N3CCC[C@@H](CS(C)(=O)=O)C3)c3cnc(cc31)Nc1ccnc-2n1 [Example 28, (R)-1'-methyl-3'-(3-((methylsulfonyl)methyl)piperidin-1-yl)spiro(cyclopentane-1, 6'-8-oxa-3-aza-4(6,1)-pyrazolo[4,3-c]pyridina-2(2,4)-pyrimidina-1(4,5)-pyrazolacyclooctaphane)]
